# Measurements as given in patent US20200024573A1, “CHEMICAL DIFFERENTIATION OF PLURIPOTENT STEM CELLS INTO RETINAL EPITHELIAL CELLS” (International Stem Cell Corporation, priority 2014, published 2020).
# System: retinal epithelial progenitor cells
# Assay: Derivation of retinal pigmented epithelium from hPSCs in 3D culture
# Type: cell-based, human
# Details: hPSC 3D cultures, N2/B27 medium containing Chir99021 (3 μM) for 15 days, after 12 days SB431542, IWR-1, DMH-1, Y-27632
# Experimental: hPSCs cells growing under feeder-free culture conditions were dissociated with Accutase and grown in suspension in Ultra-low 6 well plates, with N2/B27 medium (DMEM/F12 with GlutaMAX, 1× N2/B27 Supplement) plus SB431542 (10 μM), IWR-1 (3 μM), DMH-1 (2 μM), and Y-27632 (10 μM) for 12 days (FIGS. 1A-1C) to generate retinal epithelial progenitor cells. After 12 days, to differentiate the retinal epithelial progenitor cells into retinal pigmented epithelium into RPEs, hPSC 3D cultures were switch into N2/B27 medium containing Chir99021 (3 μM) for 15 days (FIGS. 1A-1C and 2). […] Derivation of RPEs was confirmed by immunohistochemistry for RPE specific protein expression (MITF, ZO-1, Best-1 and Melanosome) and by RT-PCR gene analysis for RPE specific gene markers ([…], BEST1 OTX2, RLBP1, RPE65 and SERINF1) (FIGS. 3 and 4). FACS analysis was performed to determine the percentage of cells positive for RPE specific proteins MITF, Mel and BEST (FIGS. 5A-5C).
smiles,measurement,value
Cc1c[nH]c(-c2cnc(NCCNc3ccc(C#N)cn3)nc2-c2ccc(Cl)cc2Cl)n1 [Chir99021],maturation/pigmentation of retinal epithelial progenitor cells,promotes the maturation/pigmentation of retinal epithelial progenitor cells
